assay: Glaze formation: dried on glass plate and scored with a knife; format: physicochemical; details: cellobiose alone, 10-320 mM, dried at 37° C.
Protocol: 100 μl of 10-320 mM (10, 20, 40, 80, 160, and 320 mM) cellobiose±1% w/v birchwood xylan was pipetted onto a glass plate. • 2. Samples were dried at 37° C. • 3. Samples were scored with a knife to test whether or not the ingredient settled into a solid glaze. […] With a cellobiose concentration of 160 mM or higher (5.5% w/v, or 550% w/w as compared with xylan) the morphology of the glaze reverted to that without xylan present.

With `O=C[C@H](O)[C@@H](O)[C@H](O[C@@H]1O[C@H](CO)[C@@H](O)[C@H](O)[C@H]1O)[C@H](O)CO` [cellobiose] the Glaze formation was “no firm glaze was formed”.

assay: Flow characteristics: timed flow from a vertically stood syringe under gravity; format: physicochemical; details: syringe filled with 20 mL test liquid, room temperature
Protocol: The glucose solutions were made by weighing 6, 12, 18, and 24 g D-glucose respectively and making up with 90° C. water to 30 mL. The flow characteristics were measured by timing the flow rate of 5 mL, and where suitable, 20 mL of the liquids from a vertically stood syringe (BD Plastipak 300613) filled with 20 mL of test liquid under gravity at room temperature.
Sample were analyzed for flow characteristics as described in Example 9.

Point of comparison: `O=C[C@H](O)[C@@H](O)[C@H](O)[C@H](O)CO` [60% w/v glucose, D-glucose], “Time for 5 mL flow” value 3 s. Against it:
- O=C[C@H](O)[C@@H](O)[C@H](O)[C@H](O)CO [20% w/v glucose, D-glucose] — lower, 2.3 s
- O=C[C@H](O)[C@@H](O)[C@H](O)[C@H](O)CO [40% w/v glucose, D-glucose] — lower, 2.5 s
- O=C[C@H](O)[C@@H](O)[C@H](O)[C@H](O)CO [80% w/v glucose, D-glucose] — higher, 5 s

Point of comparison: `O=C[C@H](O)[C@@H](O)[C@H](O)[C@H](O)CO` [80% w/v glucose, D-glucose], “Time for 20 mL flow” value 38 s. Against it:
- O=C[C@H](O)[C@@H](O)[C@H](O)[C@H](O)CO [20% w/v glucose, D-glucose] — lower, 13.5 s
- O=C[C@H](O)[C@@H](O)[C@H](O)[C@H](O)CO [40% w/v glucose, D-glucose] — lower, 15 s
- O=C[C@H](O)[C@@H](O)[C@H](O)[C@H](O)CO [60% w/v glucose, D-glucose] — lower, 20 s

— patent US11771123B2, “Methods for treating biomass to produce oligosaccharides and related compositions” (Cambridge Glycoscience Ltd, priority 2019, dated 2023)
